Reference: publication PMC7215714

Columns and labels:
[1] = tested on: caspases 3 and 9 in SH-SY5Y cells; experiment: Western blotting of cleaved caspase 3 and 9; format: cell-based, human; details: 2000 µM, 6 h, both differentiated and undifferentiated SH-SY5Y cells
Procedure: Amiodarone 50 μM and MDMA 1000 μM were used as negative controls. After treatment, cells were washed twice with cold PBS buffer (pH 7.4) and incubated with 70 μL of cell lysis buffer (radioimmunoprecipitation assay (RIPA) buffer supplemented with complete protease inhibitor (Roche Diagnostics, Mannheim, Germany)) for 15 min on ice. Then, the cell lysates were collected into Eppendorf tubes and centrifuged at 1600 g for 20 min. […] The protein extracts (18 μg per lane) were loaded, separated by SDS/PAGE using 4–12% NuPAGE Bis-Tris gels (Invitrogen, Basel, Switzerland), and then transferred to nitrocellulose membranes by the Trans-Blot Turbo Blotting System (Bio-Rad, Cressier, Switzerland). […] Protein expression was quantified using the Fusion Pulse TS device (Vilber Lourmat, Oberschwaben, Germany).

SH-SY5Y cells = tested on: SH-SY5Y cells; design: method as in PMID 32295288; details: cited from earlier work
[2] = tested on: mitochondria obtained from the hippocampus, cortex, and cerebellum of rats; details: cited from earlier work
C2C12 cells = tested on: C2C12 cells; design: method as in PMID 30925718; details: C2C12 mouse skeletal muscle cell line; cited from earlier work
[3] = cited from earlier work

## CNC(C)C(=O)c1ccc(Cl)cc1 (stereo not shown) [4-CMC, 4-chloromethcathinone]
[1]
  Expression of cleaved caspase 9: increased the expression of cleaved caspase 9
SH-SY5Y cells
  Effect on autophagy: stimulates autophagy

## CNC(C)C(=O)c1ccc(C)cc1 (stereo not shown) [4-MMC, 4-methylmethcathinone]
[2]
  Effect on mitochondrial ROS levels and outer mitochondrial membrane: increases mitochondrial ROS levels and damages the outer mitochondrial membrane

## CNC(C)Cc1ccc2c(c1)OCO2 (stereo not shown) [MDMA, 3,4-methylenedioxymethamphetamine]
C2C12 cells
  Electron transport chain complexes with reduced activity: reduced the activity of complexes I and III

## CC(N)Cc1ccccc1 (stereo not shown) [amphetamine, Amphetamine]
[3]
  Plasma concentrations reached after a pharmacological dose: low micromolar range

## CCCC(C(=O)c1ccc2ccccc2c1)N1CCCC1 (stereo not shown) [naphyrone]
C2C12 cells
  Electron transport chain complexes with reduced activity: complex II

## CCCC(C(=O)c1ccccc1)N1CCCC1 (stereo not drawn) [α-PVP, α-pyrrolidinopentiophenone]
C2C12 cells
  Electron transport chain complexes with reduced activity: complex I
